According to PubChem BioAssay AID1259411 (Chemical Carcinogenesis Research Information System (CCRIS), 2018):
Activity calls are given as the source filed them. How the calls were made is not given here.

System: rodent carcinogenicity bioassays, tumor incidence
Test: CCRIS carcinogenicity studies
Details: Dose: 0, Dose: 0
Outline: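 Archive of carcinogenicity, mutagenicity, tumor promotion and tumor inhibition results drawn from journals, NCI reports and other sources, expert-reviewed; covers 1985-2011 and is no longer updated.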

ClC(Cl)Br
carcinogen call (Species: FISH, Strain/Sex: ORYZIAS LATIPES/FEMALE, Route: IMMERSION, 0.018, 0.143, 1.424 MG/L AQUEOUS SOLUTION FOR 6 MO (STUDY DURATION: 6 MO), 0.018, 0.143, 1.424 MG/L AQUEOUS SOLUTION FOR 6 MO (STUDY DURATION: 6 MO)): inactive; negative
carcinogen call (Species: FISH, Strain/Sex: ORYZIAS LATIPES/FEMALE, Route: IMMERSION, 0.018, 0.143, 1.424 MG/L AQUEOUS SOLUTION FOR 9 MO (STUDY DURATION: 9 MO), 0.018, 0.143, 1.424 MG/L AQUEOUS SOLUTION FOR 9 MO (STUDY DURATION: 9 MO)): inactive; negative
carcinogen call (Species: FISH, Strain/Sex: ORYZIAS LATIPES/MALE, Route: IMMERSION, 0.018, 0.143, 1.424 MG/L AQUEOUS SOLUTION FOR 6 MO (STUDY DURATION: 6 MO), 0.018, 0.143, 1.424 MG/L AQUEOUS SOLUTION FOR 6 MO (STUDY DURATION: 6 MO)): inactive; negative
carcinogen call (Species: FISH, Strain/Sex: ORYZIAS LATIPES/MALE, Route: IMMERSION, 0.018, 0.143, 1.424 MG/L AQUEOUS SOLUTION FOR 9 MO (STUDY DURATION: 9 MO), 0.018, 0.143, 1.424 MG/L AQUEOUS SOLUTION FOR 9 MO (STUDY DURATION: 9 MO)): inactive; negative
carcinogen call (Species: MOUSE, Strain/Sex: B6C3F1/FEMALE, Route: GAVAGE, 75, 150 MG/KG IN CORN OIL 5D/WK FOR 102 WK (STUDY DURATION: 105 WK), 75, 150 MG/KG IN CORN OIL 5D/WK FOR 102 WK (STUDY DURATION: 105 WK), Tumor Site: Type of Lesion: LIVER: HEPATOCELLULAR ADENOMA, LIVER: HEPATOCELLULAR CARCINOMA, LIVER: HEPATOCELLULAR ADENOMA OR CARCINOMA, Tumor Site: Type of Lesion: LIVER: HEPATOCELLULAR ADENOMA, LIVER: HEPATOCELLULAR CARCINOMA, LIVER: HEPATOCELLULAR ADENOMA OR CARCINOMA): active; positive
carcinogen call (Species: MOUSE, Strain/Sex: B6C3F1/MALE, Route: GAVAGE, 25, 50 MG/KG IN CORN OIL 5D/WK FOR 102 WK (STUDY DURATION: 105 WK), 25, 50 MG/KG IN CORN OIL 5D/WK FOR 102 WK (STUDY DURATION: 105 WK), Tumor Site: Type of Lesion: KIDNEY: TUBULAR CELL ADENOMA OR ADENOCARCINOMA): active; positive
carcinogen call (Species: MOUSE, Strain/Sex: B6C3F1/MALE, Route: ORAL, 8.1, 27.2, 43.4 MG/KG/D IN 0.25% EMULPHOR IN DRINKING WATER FOR 100 WK (STUDY DURATION: 100 WK), 8.1, 27.2, 43.4 MG/KG/D IN 0.25% EMULPHOR IN DRINKING WATER FOR 100 WK (STUDY DURATION: 100 WK)): inactive; negative
carcinogen call (Species: Mouse, Strain/Sex: B6C3F1/female, Route: Oral, 175, 350, 700 mg/L (about 0, 9, 18, and 36 mg/kg, respectively) in drinking water for 104 wk, 175, 350, 700 mg/L (about 0, 9, 18, and 36 mg/kg, respectively) in drinking water for 104 wk): inactive; negative
carcinogen call (Species: RAT, Strain/Sex: F344/FEMALE, Route: GAVAGE, 50, 100 MG/KG IN CORN OIL 5D/WK FOR 102 WK (STUDY DURATION: 104 WK), 50, 100 MG/KG IN CORN OIL 5D/WK FOR 102 WK (STUDY DURATION: 104 WK), Tumor Site: Type of Lesion: LARGE INTESTINE: ADENOMATOUS POLYP, LARGE INTESTINE: ADENOCARCINOMA, LARGE INTESTINE: ADENOMATOUS POLYP OR ADENOCARCINOM, Tumor Site: Type of Lesion: LARGE INTESTINE: ADENOMATOUS POLYP, LARGE INTESTINE: ADENOCARCINOMA, LARGE INTESTINE: ADENOMATOUS POLYP OR ADENOCARCINOM): active; positive
carcinogen call (Species: RAT, Strain/Sex: F344/MALE, Route: GAVAGE, 50, 100 MG/KG IN CORN OIL 5D/WK FOR 102 WK (STUDY DURATION: 104 WK), 50, 100 MG/KG IN CORN OIL 5D/WK FOR 102 WK (STUDY DURATION: 104 WK), Tumor Site: Type of Lesion: LARGE INTESTINE: ADENOCARCINOMA, LARGE INTESTINE: ADENOMATOUS POLYP, LARGE INTESTINE: ADENOMATOUS POLYP OR ADENOCARCINOM, Tumor Site: Type of Lesion: LARGE INTESTINE: ADENOCARCINOMA, LARGE INTESTINE: ADENOMATOUS POLYP, LARGE INTESTINE: ADENOMATOUS POLYP OR ADENOCARCINOM): active; positive
carcinogen call (Species: RAT, Strain/Sex: F344/MALE, Route: ORAL, 3.9, 20.6, 36.3 MG/KG/D IN 0.25% EMULPHOR IN DRINKING WATER FOR 100 WK (STUDY DURATION: 100 WK), 3.9, 20.6, 36.3 MG/KG/D IN 0.25% EMULPHOR IN DRINKING WATER FOR 100 WK (STUDY DURATION: 100 WK), Tumor Site: Type of Lesion: LIVER: HEPATOCELLULAR ADENOMA, HEPATOCELLULAR ADENOMA OR HEPATOCELLULAR CARCINOMA): active; positive
carcinogen call (Species: RAT, Strain/Sex: WISTAR/FEMALE, Route: ORAL, 1.2 ML/L (15 MILLIMOLAR) IN DRINKING WATER FOR 72 WK THEN DOSE HALVED FOR DURATION OF STUDY (STUDY DURATION: LIFETIME, Tumor Site: Type of Lesion: LIVER: NEOPLASTIC NODULES, LYMPHOID TISSUE: LYMPHOSARCOMA): active; positive
carcinogen call (Species: RAT, Strain/Sex: WISTAR/MALE, Route: ORAL, 1.2 ML/L (15 MILLIMOLAR) IN DRINKING WATER FOR 72 WK THEN DOSE HALVED FOR DURATION OF STUDY (STUDY DURATION: LIFETIME): inactive; negative
carcinogen call (Species: Rat, Strain/Sex: F344/N/male, Route: Oral, 175, 350, 700 mg/L (about 0, 6, 12, and 25 mg/kg, respectively) in drinking water for 104 wk, 175, 350, 700 mg/L (about 0, 6, 12, and 25 mg/kg, respectively) in drinking water for 104 wk): inactive; negative

CCOP(=S)(OCC)Oc1nc(Cl)c(Cl)cc1Cl
carcinogen call (Species: Mouse, Strain/Sex: CD-1/Female (59/group), Route: Oral, 5, 50, 250 ppm in diet for 79 wk, 5, 50, 250 ppm in diet for 79 wk): inactive; negative (study details not given in source; purity 99.6%)
carcinogen call (Species: Mouse, Strain/Sex: CD-1/Male (59/group), Route: Oral, 5, 50, 250 ppm in diet for 79 wk, 5, 50, 250 ppm in diet for 79 wk): inactive; negative (study details not given in source; purity 99.6%)
carcinogen call (Species: RAT, Strain/Sex: F344/FEMALE, Route: ORAL, 0.05, 0.1, 1, 10 MG/KG BW/D IN DIET FOR 104 WK (STUDY DURATION: 104 WK), 0.05, 0.1, 1, 10 MG/KG BW/D IN DIET FOR 104 WK (STUDY DURATION: 104 WK)): inactive; negative
carcinogen call (Species: RAT, Strain/Sex: F344/MALE, Route: ORAL, 0.05, 0.1, 1, 10 MG/KG BW/D IN DIET FOR 104 WK (STUDY DURATION: 104 WK), 0.05, 0.1, 1, 10 MG/KG BW/D IN DIET FOR 104 WK (STUDY DURATION: 104 WK)): inactive; negative

c1ccc2[nH]c(-c3cscn3)nc2c1
carcinogen call (Species: MOUSE, Strain/Sex: CD-1/FEMALE, Route: ORAL, 0.031, 0.125, 0.5% IN DIET FOR 78 WK (STUDY DURATION: 78 WK), 0.031, 0.125, 0.5% IN DIET FOR 78 WK (STUDY DURATION: 78 WK)): inactive; negative
carcinogen call (Species: MOUSE, Strain/Sex: CD-1/MALE, Route: ORAL, 0.031, 0.125, 0.5% IN DIET FOR 78 WK (STUDY DURATION: 78 WK), 0.031, 0.125, 0.5% IN DIET FOR 78 WK (STUDY DURATION: 78 WK)): inactive; negative
carcinogen call (Species: MOUSE, Strain/Sex: ICR/MALE, Route: ORAL, 0.8, 1.2, 1.6% IN DIET FOR 44 WK (STUDY DURATION: 44 WK), 0.8, 1.2, 1.6% IN DIET FOR 44 WK (STUDY DURATION: 44 WK)): inactive; negative
carcinogen call (Species: RAT, Strain/Sex: F344/FEMALE, Route: ORAL, 0.05, 0.1, 0.2, 0.4% IN DIET FOR 104 WK (STUDY DURATION: 104 WK), 0.05, 0.1, 0.2, 0.4% IN DIET FOR 104 WK (STUDY DURATION: 104 WK)): inactive; negative
carcinogen call (Species: RAT, Strain/Sex: F344/MALE, Route: ORAL, 0.05, 0.1, 0.2, 0.4% IN DIET FOR 104 WK (STUDY DURATION: 104 WK), 0.05, 0.1, 0.2, 0.4% IN DIET FOR 104 WK (STUDY DURATION: 104 WK)): inactive; negative

C[C@]12CC[C@@H]3c4cc(O)c(O)cc4CC[C@H]3[C@@H]1CC[C@@H]2O
carcinogen call (Species: MOUSE, Strain/Sex: CD-1/FEMALE, Route: SUBCUTANEOUS, 2 UG/D IN CORN OIL ON DAYS 1-5 OF LIFE (STUDY DURATION: 12-18 WK), Tumor Site: Type of Lesion: UTERUS: ADENOCARCINOMA): active; positive

CC(C)(C)NC(=O)[C@H]1CC[C@H]2[C@@H]3CC[C@H]4NC(=O)C=C[C@]4(C)[C@H]3CC[C@]12C
carcinogen call (Species: MOUSE, Strain/Sex: CD-1/MALE, Route: GAVAGE, 2.5, 25, 250 MG/KG/D FOR 83 WK (STUDY DURATION: 83 WK), 2.5, 25, 250 MG/KG/D FOR 83 WK (STUDY DURATION: 83 WK), Tumor Site: Type of Lesion: TESTES: LEYDIG CELL ADENOMA): active; positive
